{"source": "paper PMC7584652", "about": "(Nature Communications, 2020)", "conditions_in_all_cases": "labelled compound ([5′-α-32P]); 10 mM Tris pH 7.5, 100 mM NaCl, 5 mM MgCl2, room temperature", "key": {"GuaC": {"target": "GuaC (Bacillus anthracis, UniProt Q81JJ9)"}, "PurR": {"target": "PurR (Bacillus anthracis, UniProt A0AAC8NAH2)"}, "RbgA": {"target": "T1, RbgA (Bacillus anthracis, UniProt A0A6L8PZ03)", "T1 construct": "gene GBAA_3976"}, "YjbM (SAS1)": {"target": "T2, YjbM (SAS1) (Bacillus anthracis, UniProt A0A2P0HBB4)", "T2 construct": "gene BA_1212"}}, "data": [{"compound": "Nc1nc2c(ncn2[C@@H]2O[C@H](COP(=O)(O)O)[C@@H](OP(=O)(O)OP(=O)(O)O)[C@H]2O)c(=O)[nH]1", "note": "[pGpp, guanosine-5′-monophosphate-3′-diphosphate]", "values": [{"measurement": "DRaCALA screen in E. coli overexpression lysate", "setting": "GuaC", "value": "including HprT, Xpt, Gmk, and GuaC, bound both pGpp and (p)ppGpp"}]}, {"compound": "Nc1nc2c(ncn2[C@@H]2O[C@H](COP(=O)(O)OP(=O)(O)O)[C@@H](OP(=O)(O)OP(=O)(O)O)[C@H]2O)c(=O)[nH]1", "note": "[ppGpp]", "values": [{"measurement": "DRaCALA screen in E. coli overexpression lysate", "setting": "PurR", "value": "purine nucleotide synthesis proteins (Hpt1, Xpt, Gmk, GuaC, PurA, and PurR)"}, {"measurement": "DRaCALA screen in E. coli overexpression lysate", "setting": "RbgA", "value": "ribosome and translation regulatory GTPases (HflX, Der, Obg, RbgA, TrmE, and Era)"}]}, {"compound": "Nc1nc2c(ncn2[C@@H]2O[C@H](COP(=O)(O)OP(=O)(O)OP(=O)(O)O)[C@@H](OP(=O)(O)OP(=O)(O)O)[C@H]2O)c(=O)[nH]1", "note": "[pppGpp]", "values": [{"measurement": "DRaCALA screen in E. coli overexpression lysate", "setting": "YjbM (SAS1)", "value": "several proteins bind to pppGpp but not ppGpp, including the small alarmone synthetase YjbM"}]}]}
